Results as given in patent US7129269B2, “Compound” (Sterix Ltd., priority 1996, dated 2006).

Tests used:
[1] = molecular target: T1, oestrone sulphatase (E1-STS) (Homo sapiens, UniProt P08842); test: Oestrone sulphatase (E1-STS) inhibition in intact MCF-7 breast cancer cells; assay type: cell-based
T1 construct: endogenous in cells; host or cells: MCF-7 breast cancer cells
T1 sequence (P08842 22-583): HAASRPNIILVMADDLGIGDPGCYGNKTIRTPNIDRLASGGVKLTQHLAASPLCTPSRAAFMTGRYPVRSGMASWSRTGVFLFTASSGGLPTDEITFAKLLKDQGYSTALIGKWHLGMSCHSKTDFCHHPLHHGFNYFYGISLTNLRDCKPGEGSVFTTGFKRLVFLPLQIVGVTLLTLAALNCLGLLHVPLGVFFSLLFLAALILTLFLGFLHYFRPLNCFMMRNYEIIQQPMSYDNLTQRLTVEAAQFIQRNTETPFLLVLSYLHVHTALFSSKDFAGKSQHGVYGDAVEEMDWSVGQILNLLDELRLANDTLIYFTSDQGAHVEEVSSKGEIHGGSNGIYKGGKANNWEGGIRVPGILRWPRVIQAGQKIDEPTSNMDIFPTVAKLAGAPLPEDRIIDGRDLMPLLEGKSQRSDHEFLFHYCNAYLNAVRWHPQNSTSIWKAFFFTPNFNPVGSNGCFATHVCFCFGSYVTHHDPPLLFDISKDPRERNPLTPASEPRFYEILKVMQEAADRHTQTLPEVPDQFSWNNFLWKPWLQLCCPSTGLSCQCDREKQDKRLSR

aromatase = molecular target: T2, aromatase (Homo sapiens, UniProt P11511)
T2 sequence (P11511 1-503): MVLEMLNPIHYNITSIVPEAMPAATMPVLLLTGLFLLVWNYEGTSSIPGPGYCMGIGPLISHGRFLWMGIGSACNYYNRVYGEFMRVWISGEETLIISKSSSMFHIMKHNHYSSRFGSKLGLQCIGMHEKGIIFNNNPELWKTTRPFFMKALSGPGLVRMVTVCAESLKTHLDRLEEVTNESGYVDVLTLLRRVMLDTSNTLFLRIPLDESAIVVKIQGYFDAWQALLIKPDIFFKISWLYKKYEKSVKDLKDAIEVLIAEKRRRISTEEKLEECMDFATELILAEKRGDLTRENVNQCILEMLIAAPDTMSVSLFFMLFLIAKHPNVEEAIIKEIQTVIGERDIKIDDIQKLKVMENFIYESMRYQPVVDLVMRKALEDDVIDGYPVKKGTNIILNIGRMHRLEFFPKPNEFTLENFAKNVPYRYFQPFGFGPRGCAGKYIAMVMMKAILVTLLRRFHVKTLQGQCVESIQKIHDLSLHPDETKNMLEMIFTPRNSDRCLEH

oestrone sulphatase [2] = molecular target: T3, oestrone sulphatase (Homo sapiens, UniProt P08842); test: Oestrone sulphatase inhibition in placental microsomes; assay type: biochemical; settings: placental microsomes
T3 construct: from tissue; host or cells: placenta (microsomes, 100,000 g)
T3 sequence (P08842 22-583): T1 sequence (P08842 22-583)

oestrone sulphatase [3] = molecular target: T4, oestrone sulphatase (Rattus norvegicus, UniProt P15589); test: In vivo inhibition of oestrone sulphatase activity in rat liver; settings: 24 hours after single oral dose in propylene glycol, 10 mg/Kg
T4 construct: from tissue; host or cells: rat liver
T4 sequence (P15589 20-577): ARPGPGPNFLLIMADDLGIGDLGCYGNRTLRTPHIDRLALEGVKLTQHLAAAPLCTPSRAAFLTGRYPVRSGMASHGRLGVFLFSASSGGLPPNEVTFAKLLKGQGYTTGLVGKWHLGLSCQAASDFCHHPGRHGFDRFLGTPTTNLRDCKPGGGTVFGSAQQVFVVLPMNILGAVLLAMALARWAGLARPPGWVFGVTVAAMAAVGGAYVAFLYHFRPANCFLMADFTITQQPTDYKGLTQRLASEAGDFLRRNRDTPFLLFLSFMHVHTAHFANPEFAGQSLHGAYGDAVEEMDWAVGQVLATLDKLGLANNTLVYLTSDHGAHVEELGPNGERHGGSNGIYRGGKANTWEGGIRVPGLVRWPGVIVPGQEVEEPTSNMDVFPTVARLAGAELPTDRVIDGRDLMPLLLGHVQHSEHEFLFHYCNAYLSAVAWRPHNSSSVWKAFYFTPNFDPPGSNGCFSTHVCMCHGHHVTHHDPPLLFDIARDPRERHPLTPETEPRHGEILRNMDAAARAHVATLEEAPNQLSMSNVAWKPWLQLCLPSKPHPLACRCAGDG
Experimental: FIG. 11 presents in vivo inhibition of oestrone sulphatase activity in rat liver for two isoflavones according to the present invention. […] Compounds were administered as a single 10 mg/Kg dose. Oestrone sulphatase activity was assayed in tissue samples obtained 24 h after drug administration.

With `NS(=O)(=O)Oc1cc(O)c2c(=O)cc(-c3ccccc3)oc2c1` [Compound 3, 5-Hydroxyflavone 7-O-sulphamate] as the molecule, how does the “% Inhibition of sulphatase activity in MCF-7 cells” value (shortened to “% Inhibition of sulphatase activity”) ([1]; 1 μM) read?
The value was 4.2 ± 0.9%.

What about the “% Inhibition of sulphatase activity” value ([1]; 10 μM) of the same molecule?
The value was 20.6 ± 1.2%.

What about the “% Inhibition of aromatase activity in placental microsomes at 10 μM” value (aromatase) of the same molecule?
The value was 85%.

And the “% INHIBITION Sulphatase” value (oestrone sulphatase [2]; 1 μM)?
Its value is 8%.

And the “% INHIBITION Sulphatase” value (oestrone sulphatase [2]; 10 μM)?
The value was 21%.

`NS(=O)(=O)Oc1ccc(C2CC(=O)c3c(O)cc(O)cc3O2)cc1` (stereo not shown) [Compound 20, 5,7-Dihydroxyflavanone 4′-O-sulphamate] was tested. Which “% Inhibition of oestrone sulphatase in vivo” value (oestrone sulphatase [3]) did it give?
The value was 44.2 ± 3.8%.

What about the “% Inhibition of sulphatase activity” value ([1]; 0.1 μM) of the same molecule?
Its value is 30 ± 2.8%.

What about the “% Inhibition of sulphatase activity” value ([1]; 1 μM) of the same molecule?
Its value is 79 ± 1.2%.

And the “% Inhibition of sulphatase activity” value ([1]; 10 μM)?
The value was > 99%.

And the “% INHIBITION Sulphatase” value (oestrone sulphatase [2]; 10 μM, listed as 5,7-dehydroxy flavanone-4′-sulphamate)?
The value was 98%.
